Reference: patent US20230312587A1, “PTERIDINONE COMPOUNDS AND USES THEREOF” (Vertex Pharmaceutical Incorporated, priority 2018, published 2023)

tested on: β-catenin-TCF-mediated reporter transcription activity in Colo 205 cells; assay: Colo 205 reporter assay (TCF/LEF luciferase); assay type: cell-based; conditions: Colo 205 TCF/LEF luciferase reporter, five hours after addition of compound; read-out: TCF reporter Colo205 IC50
Method in brief: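 Luciferase signal from a TCF/LEF-driven reporter, stably integrated in Colo 205 colon cancer cells, was measured 5 h after compound addition.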

| IC50 [nM] | Compound |
| --- | --- |
| < 300 | Cc1nc(N[C@H]2CO[C@H](COc3cc(F)c(F)c(F)c3)C2)nc2c1NC(=O)[C@H](C)N2C [Compound 301, (7S)-4,7,8-trimethyl-2-(((3R,5S)-5-((3,4,5-trifluorophenoxy)methyl)tetrahydrofuran-3-yl)amino)-7,8-dihydropteridin-6(5H)-one] |
| 1000 to 5000 | Cc1nc(N[C@H]2CO[C@H](COc3cc(F)c(F)c(F)c3)C2)nc2c1NC(=O)[C@H](C)N2C [Compound 302, (7S)-4,7,8-trimethyl-2-(((3R,5S)-5-((3,4,5-trifluorophenoxy)methyl)tetrahydrofuran-3-yl)amino)-7,8-dihydropteridin-6(5H)-one] |

same assay, conditions: Homo sapiens, COLO 205, 5 h, Colo 205 TCF/LEF luciferase reporter, five hours after addition of compound; read-out: TCF reporter Colo205 IC50

| Compound | IC50 [nM] |
| --- | --- |
| C[C@H]1C(=O)Nc2cnc(N[C@H]3C[C@H](OCc4cc(F)c(F)c(F)c4)C3)nc2N1C [Compound 256, (7S)-7,8-dimethyl-2-((trans-3-((3,4,5-trifluorobenzyl)oxy)cyclobutyl)amino)-7,8-dihydropteridin-6(5H)-one] | 300 to 1000 |
| Cc1nc(N[C@H]2C[C@H](Oc3cncc(F)c3)C2)nc2c1NC(=O)[C@H](C)N2C [Compound 262, (7S)-2-((trans-3-((5-fluoropyridin-3-yl)oxy)cyclobutyl)amino)-4,7,8-trimethyl-7,8-dihydropteridin-6(5H)-one] | 1000 to 5000 |
| Cc1nc(N[C@H]2C[C@@H](COc3cncc(F)c3)C2)nc2c1NC(=O)[C@H](C)N2C [Compound 263, (7S)-2-((cis-3-(((5-fluoropyridin-3-yl)oxy)methyl)cyclobutyl)amino)-4,7,8-trimethyl-7,8-dihydropteridin-6(5H)-one] | 300 to 1000 |
| C[C@H]1C(=O)Nc2cnc(N[C@H]3C[C@H](OCc4ccc(F)c(F)c4)C3)nc2N1C [Compound 265, (7S)-2-((trans-3-((3,4-difluorobenzyl)oxy)cyclobutyl)amino)-7,8-dimethyl-7,8-dihydropteridin-6(5H)-one] | 300 to 1000 |
| Cc1nc(N[C@H]2C[C@H](OCc3ccc(F)c(F)c3)C2)nc2c1N(C)C(=O)[C@H](C)N2C [Compound 266, (7S)-2-((trans-3-((3,4-difluorobenzyl)oxy)-cyclobutyl)amino)-4,5,7,8-tetramethyl-7,8-dihydropteridin-6(5H)-one] | 300 to 1000 |
| Cc1nc(N[C@H]2C[C@@H](COc3ccc(F)nc3)C2)nc2c1NC(=O)[C@H](C)N2C [Compound 270, (7S)-2-((cis-3-(((6-fluoropyridin-3-yl)oxy)methyl)cyclobutyl)amino)-4,7,8-trimethyl-7,8-dihydropteridin-6(5H)-one] | 300 to 1000 |
| Cc1nc(N[C@H]2C[C@H](Oc3ncc(F)cn3)C2)nc2c1N(C)C(=O)[C@H](C)N2C [Compound 274, (S)-2-((trans-3-((5-fluoropyrimidin-2-yl)oxy)cyclobutyl)amino)-4,5,7,8-tetramethyl-7,8-dihydropteridin-6(5H)-one] | ≥ 5000 |
| Cc1nc(N[C@H]2C[C@H](Oc3ncc(F)cn3)C2)nc2c1NC(=O)[C@H](C)N2C [Compound 276, (7S)-2-((trans-3-((5-fluoropyrimidin-2-yl)oxy)cyclobutyl)amino)-4,7,8-trimethyl-7,8-dihydropteridin-6(5H)-one] | ≥ 5000 |
| Cc1nc(NC2CC2COc2ccccc2)nc2c1NC(=O)[C@H](C)N2C (stereo partly drawn) [Compound 278, (7S)-4,7,8-trimethyl-2-((2-(phenoxymethyl)cyclopropyl)-amino)-7,8-dihydropteridin-6(5H)-one] | 1000 to 5000 |
| Cc1nc(N[C@H]2C[C@@H](Cn3cc(F)cn3)C2)nc2c1NC(=O)[C@H](C)N2C [Compound 279, (7S)-2-((cis-3-((4-fluoro-1H-pyrazol-1-yl)methyl)cyclobutyl)amino)-4,7,8-trimethyl-7,8-dihydropteridin-6(5H)-one] | 300 to 1000 |
| COc1c(F)cc(OC[C@H]2C[C@@H](Nc3nc(C)c4c(n3)N(C)[C@@H](C)C(=O)N4)C2)cc1F [Compound 284, (7S)-2-((cis-3-((3,5-difluoro-4-methoxyphenoxy)methyl)cyclobutyl)amino)-4,7,8-trimethyl-7,8-dihydropteridin-6(5H)-one] | < 300 |
| Cc1nc(N[C@H]2C[C@@H](COc3cc(F)c(F)cc3F)C2)nc2c1NC(=O)[C@H](C)N2C [Compound 285, (7S)-4,7,8-trimethyl-2-((cis-3-((2,4,5-trifluorophenoxy)methyl)cyclobutyl)-amino)-7,8-dihydropteridin-6(5H)-one] | < 300 |
| Cc1nc(N[C@H]2C[C@@H](COCc3ccc(F)cc3)C2)nc2c1NC(=O)[C@H](C)N2C [Compound 286, (7S)-2-((cis-3-(((4-fluorobenzyl)oxy)methyl)cyclobutyl)amino)-4,7,8-trimethyl-7,8-dihydropteridin-6(5H)-one] | < 300 |
| COc1c(F)cc(O[C@H]2C[C@H](Nc3nc(C)c4c(n3)N(C)[C@@H](C)C(=O)N4)C2)cc1F [Compound 287, (7S)-2-((trans-3-(3,5-difluoro-4-methoxyphenoxy)cyclobutyl)amino)-4,7,8-trimethyl-7,8-dihydropteridin-6(5H)-one] | < 300 |
| C[C@H]1C(=O)Nc2cnc(N[C@H]3C[C@@H](COCc4ccc(F)cc4)C3)nc2N1C [Compound 288, (7S)-2-((cis-3-(((4-fluorobenzyl)oxy)methyl)cyclobutyl)amino)-7,8-dimethyl-7,8-dihydropteridin-6(5H)-one] | 300 to 1000 |
| Cc1nc(N[C@H]2C[C@H](Oc3ccc(F)c(F)c3F)C2)nc2c1NC(=O)[C@H](C)N2C [Compound 291, (7S)-4,7,8-trimethyl-2-((trans 3-(2,3,4-trifluorophenoxy)cyclobutyl)amino)-7,8-dihydropteridin-6(5H)-one] | < 300 |
| Cc1nc(N[C@H]2C[C@H](Oc3ccc(F)c(F)c3F)C2)nc2c1N(C)C(=O)[C@H](C)N2C [Compound 293, (7S)-4,5,7,8-tetramethyl-2-((trans-3-(2,3,4-trifluorophenoxy)cyclobutyl)-amino)-7,8-dihydropteridin-6(5H)-one] | < 300 |
| Cc1nc(N[C@H]2C[C@H](Oc3cc(F)c(F)cc3F)C2)nc2c1N(C)C(=O)[C@H](C)N2C [Compound 294, (7S)-4,5,7,8-tetramethyl-2-((trans-3-(2,4,5-trifluorophenoxy)-cyclobutyl)amino)-7,8-dihydropteridin-6(5H)-one] | < 300 |
| Cc1nc(N[C@H]2C[C@H](Oc3ccc(F)cc3F)C2)nc2c1N(C)C(=O)[C@H](C)N2C [Compound 296, (7S)-2-((trans-3-(2,4-difluorophenoxy)cyclobutyl)amino)-4,5,7,8-tetramethyl-7,8-dihydropteridin-6(5H)-one] | < 300 |

The next lines start with the values.

| IC50 [nM] | Compound |
| --- | --- |
| < 300 | Cc1nc(N[C@H]2C[C@H](Oc3ccc(F)c(F)c3)C2)nc2c1N(C)C(=O)[C@H](C)N2C [Compound 252, (7S)-2-((trans-3-(3,4-difluorophenoxy)cyclobutyl)amino)-4,5,7,8-tetramethyl-7,8-dihydropteridin-6(5H)-one] |
| < 300 | Cc1nc(N[C@H]2C[C@H](OCc3cc(F)c(F)c(F)c3)C2)nc2c1N(C)C(=O)[C@H](C)N2C [Compound 255, (7S)-4,5,7,8-tetramethyl-2-((trans-3-((3,4,5-trifluorobenzyl)oxy)cyclobutyl)amino)-7,8-dihydropteridin-6(5H)-one] |
| < 300 | Cc1nc(N[C@H]2C[C@@H](COc3ccc(F)cc3)C2)nc2c1NC(=O)[C@H](C)N2C [Compound 261, (7S)-2-((cis-3-((4-fluorophenoxy)methyl)cyclobutyl)amino)-4,7,8-trimethyl-7,8-dihydropteridin-6(5H)-one] |
| < 300 | Cc1nc(N[C@H]2C[C@H](OCc3ccc(F)c(F)c3)C2)nc2c1NC(=O)[C@H](C)N2C [Compound 264, (7S)-2-((trans-3-((3,4-difluorobenzyl)oxy)cyclobutyl)amino)-4,7,8-trimethyl-7,8-dihydropteridin-6(5H)-one] |
| < 300 | Cc1nc(N[C@H]2C[C@@H](COc3ccc(F)c(F)c3)C2)nc2c1NC(=O)[C@H](C)N2C [Compound 271, (7S)-2-((cis-3-((3,4-difluorophenoxy)methyl)cyclobutyl)amino)-4,7,8-trimethyl-7,8-dihydropteridin-6(5H)-one] |
| < 300 | Cc1nc(N[C@H]2CC[C@H](Oc3cc(F)c(F)c(F)c3)C2)nc2c1N(C)C(=O)[C@H](C)N2C [Compound 273, (S)-4,5,7,8-tetramethyl-2-(((1S,3S)-3-(3,4,5-trifluorophenoxy)cyclopentyl)amino)-7,8-dihydropteridin-6(5H)-one] |
| < 300 | Cc1nc(N[C@H]2C[C@@H](COc3ccc(F)cc3C#N)C2)nc2c1NC(=O)[C@H](C)N2C [Compound 277, 5-fluoro-2-((cis-3-(((7S)-4,7,8-trimethyl-6-oxo-5,6,7,8-tetrahydropteridin-2-yl)amino)cyclobutyl)methoxy)benzonitrile] |
| < 300 | COc1cc(OC[C@H]2C[C@@H](Nc3nc(C)c4c(n3)N(C)[C@@H](C)C(=O)N4)C2)cc(OC)c1OC [Compound 280, (7S)-4,7,8-trimethyl-2-((cis-3-((3,4,5-trimethoxyphenoxy)methyl)-cyclobutyl)amino)-7,8-dihydropteridin-6(5H)-one] |
| < 300 | Cc1nc(N[C@H]2C[C@@H](COc3ccc(F)c(F)c3F)C2)nc2c1NC(=O)[C@H](C)N2C [Compound 281, (7S)-4,7,8-trimethyl-2-((cis-3-((2,3,4-trifluorophenoxy)methyl)cyclobutyl)-amino)-7,8-dihydropteridin-6(5H)-one] |
| < 300 | Cc1nc(N[C@H]2C[C@@H](COc3ccc(F)cc3Cl)C2)nc2c1NC(=O)[C@H](C)N2C [Compound 282, (7S)-2-((cis-3-((2-chloro-4-fluorophenoxy)methyl)cyclobutyl)amino)-4,7,8-trimethyl-7,8-dihydropteridin-6(5H)-one] |
| < 300 | C#Cc1cccc(OC[C@H]2C[C@@H](Nc3nc(C)c4c(n3)N(C)[C@@H](C)C(=O)N4)C2)c1 [Compound 283, (7S)-2-((cis-3-((3-ethynylphenoxy)methyl)cyclobutyl)amino)-4,7,8-trimethyl-7,8-dihydropteridin-6(5H)-one] |
